# From patent publication US6787535B2, “Indole derivatives with 5HT6 receptor affinity” (Syntex (U.S.A.) LLC, priority 2001, dated 2004)
# Where a name gives a salt, the structure may show the parent alone.
row,Compound,melting point
1,"Cn1cc(S(=O)(=O)c2cc(Cl)cc(Cl)c2)c2cc(N3CCNCC3)ccc21 [compound 411, 3-(3,5-dichloro-benzenesulfonyl)-1-methyl-5-piperazin-1-yl-1H-indole]",282 to 284.5 °C
2,"O=S(=O)(c1ccccc1Cl)c1c[nH]c2ccc(N3CCNCC3)cc12 [compound 206, 3-(2-chloro-benzenesulfonyl)-5-piperazin-1-yl-1H-indole]",> 300 °C
3,"CCN1CCN(c2cccc3c(S(=O)(=O)c4ccccc4)c[nH]c23)CC1 [compound 513, 3-benzenesulfonyl-7-(4-ethyl-piperazin-1-yl)-1H-indole]",274 to 275 °C
4,"Cn1cc(S(=O)(=O)c2ccccc2Cl)c2cc(N3CCNCC3)ccc21 [compound 414, 3-(2-chloro-benzenesulfonyl)-1-methyl-5-piperazin-1-yl-1H-indole]",249.6 to 253 °C
5,"O=S(=O)(c1ccc(Cl)cc1)c1c[nH]c2ccc(N3CCNCC3)cc12 [compound 204, 3-(4-chloro-benzenesulfonyl)-5-piperazin-1-yl-1H-indole]",282 to 286.4 °C
6,"Cn1cc(S(=O)(=O)c2cccc(Cl)c2Cl)c2cc(N3CCNCC3)ccc21 [compound 409, 3-(2,3-dichloro-benzenesulfonyl)-1-methyl-5-piperazin-1-yl-1H-indole]",198 to 203 °C
7,O=S(=O)(c1ccccc1)c1c[nH]c2ccc(N3CCNCC3)cc12,254 to 264 °C (dec.)
8,"O=S(=O)(c1cccc(Cl)c1)c1c[nH]c2ccc(N3CCNCC3)cc12 [compound 110, 3-(3-chloro-benzenesulfonyl)-5-piperazin-1-yl-1H-indole]",192 to 197 °C
9,"O=S(=O)(c1ccccc1)c1c[nH]c2c(N3CCN(CC4CC4)CC3)cccc12 [compound 511, 3-benzenesulfonyl-7-(4-cyclopropylmethyl-piperazin-1-yl)-1H-indole]",280 to 282 °C
10,"O=S(=O)(c1cccc(Cl)c1)c1c[nH]c2c(N3CCNCC3)cccc12 [compound 107, 3-(3-chloro-benzenesulfonyl)-7-piperazin-1-yl-1H-indole]",295 °C
11,"Cn1cc(S(=O)(=O)c2cccc(Cl)c2)c2cc(N3CCNCC3)ccc21 [compound 415, 3-(3-chloro-benzenesulfonyl)-1-methyl-5-piperazin-1-yl-1H-indole]",185.5 to 188.5 °C
12,"CN1CCN(c2cccc3c(S(=O)(=O)c4cccc(Cl)c4)c[nH]c23)CC1 [compound 505, 3-(3-chloro-benzenesulfonyl)-7-(4-methyl-piperazin-1-yl)-1H-indole]",163 to 171 °C
13,"O=S(=O)(c1ccccc1Cl)c1c[nH]c2c(N3CCNCC3)cccc12 [compound 108, 3-(2-chloro-benzenesulfonyl)-7-piperazin-1-yl-1H-indole]",280 to 282 °C
14,O=S(=O)(c1ccncc1)c1c[nH]c2c(N3CCNCC3)cccc12,207 to 208 °C
15,"CN1CCC(c2cccc3c(S(=O)(=O)c4ccc(F)cc4)c[nH]c23)CC1 [compound 510, 3-(4-fluoro-benzenesulfonyl)-7-(1-methyl-piperidin-4-yl)-1H-indole]",178 to 182 °C
16,"Cn1cc(S(=O)(=O)c2ccccc2)c2cc(N3CCNCC3)ccc21 [compound 403, 3-benzenesulfonyl-1-methyl-5-piperazin-1-yl-1H-indole]",239 to 240 °C (dec.)
17,"O=S(=O)(c1ccc(Cl)c(Cl)c1)c1c[nH]c2ccc(N3CCNCC3)cc12 [compound 111, 3-(3,4-dichloro-benzenesulfonyl)-5-piperazin-1-yl-1H-indole]",> 300 °C
18,O=S(=O)(c1ccccc1)c1c[nH]c2c(N3CCNCC3)cccc12 (as salt: hydrochloride),278 to 280 °C
19,"O=S(=O)(c1nc2ccccc2s1)c1c[nH]c2c(N3CCNCC3)cccc12 [compound 114, 2-(7-piperazin-1-yl-1H-indole-3-sulfonyl)-benzothiazole]",295 °C
